Assay results: patent US9814739B2, “2′-ethynyl nucleoside derivatives for treatment of viral infections” (priority 2012, dated 2017)
Like-named read-outs stand apart in the source and are kept apart here.

Experiments:
[1] = system: Replicon cells, expressing the GT1b HCV luciferase replicon
[2] = 4 day CCK-8 cytotoxicity assay using THP-1 cells; format: cell-based; conditions: human, read-out: Dengue CC50 (THP-1)
Protocol: 3) Protocols for Automated 4 Days CCK8 (Dojindo) Cytotoxicity Assay in HepG2 and THP-1 Cells • 1. 25 μL of HepG2 suspension containing 1.6×10^4 cells/ml (400 cells/well) or 25 μL of THP-1 suspension containing 8×10^4 cells/ml (2000 cells/well) was dispensed into a clear 384-well plate by GNF dispenser 2B vertical-head. • 2. The plate was pre-incubated for 24 h in the GNF incubator (humidified, 37° C., 5% CO2). • 3. Serial-diluted compound were directly transferred into the culture media in the plate (200× dilution). • 4. Plates were incubated for 96 hours in the GNF incubator. • 5. CCK-8 was thawed on the bench-top, and was pre-diluted with media (2.5× dilutions). • 6. 35 μL of 2.5× diluted CCK8 was added to each well of the plate by GNF dispenser 1C angled-head. • 7. The plates were incubated for 3 hours in the incubator. • 8. The absorbance at 450 nm was measured by Envision. Dengue Assay on Cryopreserved PBMC Cells
THP-1 cells grown in suspension were counted and diluted to 8×10^4 cells/ml in RPMI-1640 media supplemented with 10% fetal bovine serum and 1% penicillin/streptomycin. 25 ul of the THP-1 containing media consisting of 2000 cells were dispensed in 384-well tissue culture plate and pre-incubated at room temperature for 30 minutes, followed by 37° C., 5% CO2 overnight in the humidified incubator. On the next day, serial-diluted compound plates were prepared and 125 nl of compounds at various concentrations were then dispensed into the tissue culture well (200× dilution). The plates were then transferred to 37° C., 5% CO2 humidified incubator for additional 96 hours. Cytotoxicity was measured by CCK-8 assay. Briefly, CCK-8 was thawed on bench top and diluted 2.5× with the growth media. 35 ul of the pre-diluted CCK-8 was then introduced into each well and the plates were then further incubated in 37° C., 5% CO2 humidified incubator for 3 hours. The absorbance was read by Envision at 450 nm. Dose response curves were plotted from the mean absorbance (n=2) versus the log of the concentration of test compounds. The EC50 is calculated by nonlinear regression analysis. A positive control (puromycin) was used to ensure the quality of the data.

[3] = system: GT1b HCV luciferase replicon; assay: HCV replicon antiviral EC50 assay; format: cell-based, Hepatitis C virus
in vitro = conditions: HCV GT1b CC50 (uM)
Dengue virus = assay: Dengue assay on cryopreserved PBMC cells (plaque reduction readout on BHK cells); format: cell-based; conditions: human PBMC cells
Protocol: Cryopreserved human PBMC cells were purchased from approved vendors. It was then thawed according to manufacturer's instructions and suspended in RPMI medium supplemented with 1% penicillin/streptomycin solution and 10% Fetal Calf serum. The cells were then counted and viability checked (viability should be at least 70%). After centrifuging and removing the media, the cells were diluted to 1×10^7 cells/mL in RPMI medium supplemented with 1% penicillin/streptomycin. 50 μl of the cells were then dispensed into 96-well tissue culture plate constituting 5×10^5 cells/well. Next, virus with humanized 4G2 mixture was prepared for infection. Briefly, virus (2×10^7 pfu/ml) was mixed with humanized 4G2 antibody with the final antibody concentration of 0.38 μg/ml and incubated for 30 minutes at 4° C. to assist virus/antibody complex formation. The virus-antibody complex was then added to the PBMC at multiplicity of infection (M.O.I) of 0.5. The resulting media was then and further incubated the plates at 37° C. in the humidified incubator for infection to take place. Serial diluted compounds were then added and finally media was added such that the final media volume was 200 μl with 2% Fetal Calf Serum. The plates were then incubated at 37° C., 5% CO2 for another 48 hours. The extent of the infection and compound inhibition was measured by plaque reduction assay using BHK cells. Briefly, BHK cells grown in 24-well tissue culture were subjected to supernatants derived from infection containing serial diluted compounds. After additional 4 days, the monolayer of BHK cells were fixed, stained with crystal violet stain and plaques counted. Dose response curves were plotted from the mean absorbance (n=3) versus the log of the concentration of test compounds. The EC50 is calculated by nonlinear regression analysis. A positive control (7-deaza-2′-C-acetylene-adenosine) was used to ensure the quality of the data.

Dengue polymerase [4] = target: T1, Dengue polymerase (Dengue virus type 2, UniProt P29990); assay: biochemical; conditions: Elongation
HCV polymerase = HCV polymerase (Hepatitis C virus genotype 1b, UniProt Q9WMX2); assay: biochemical
Dengue polymerase [5] = target: T1, Dengue polymerase; assay: biochemical; conditions: De novo

T1 sequence (P29990 2492-3391 limits assumed): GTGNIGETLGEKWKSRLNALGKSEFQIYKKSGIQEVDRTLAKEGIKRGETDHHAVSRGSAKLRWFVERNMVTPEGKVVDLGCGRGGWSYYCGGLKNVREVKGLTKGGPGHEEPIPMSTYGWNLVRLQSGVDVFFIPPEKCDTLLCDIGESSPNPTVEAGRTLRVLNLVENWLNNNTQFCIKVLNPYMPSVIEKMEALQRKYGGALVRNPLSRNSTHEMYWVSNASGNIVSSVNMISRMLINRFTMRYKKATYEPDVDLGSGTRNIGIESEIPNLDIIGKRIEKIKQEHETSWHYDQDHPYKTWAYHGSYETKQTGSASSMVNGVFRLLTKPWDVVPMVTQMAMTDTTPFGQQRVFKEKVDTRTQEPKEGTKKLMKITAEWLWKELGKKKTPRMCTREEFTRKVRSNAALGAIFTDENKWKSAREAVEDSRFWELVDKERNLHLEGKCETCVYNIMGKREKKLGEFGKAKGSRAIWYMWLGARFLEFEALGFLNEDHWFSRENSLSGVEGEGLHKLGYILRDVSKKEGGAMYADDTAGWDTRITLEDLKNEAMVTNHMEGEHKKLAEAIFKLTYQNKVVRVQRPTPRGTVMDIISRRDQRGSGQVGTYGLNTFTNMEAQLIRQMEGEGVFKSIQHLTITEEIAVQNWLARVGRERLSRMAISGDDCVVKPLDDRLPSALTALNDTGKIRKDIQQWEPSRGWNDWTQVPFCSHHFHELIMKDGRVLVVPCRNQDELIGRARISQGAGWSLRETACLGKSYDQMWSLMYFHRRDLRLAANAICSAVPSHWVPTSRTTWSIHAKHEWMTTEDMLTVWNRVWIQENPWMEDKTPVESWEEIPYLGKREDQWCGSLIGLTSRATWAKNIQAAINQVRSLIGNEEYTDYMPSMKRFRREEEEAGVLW
Chain of HCV polymerase (Q9WMX2 2420-3010 limits assumed): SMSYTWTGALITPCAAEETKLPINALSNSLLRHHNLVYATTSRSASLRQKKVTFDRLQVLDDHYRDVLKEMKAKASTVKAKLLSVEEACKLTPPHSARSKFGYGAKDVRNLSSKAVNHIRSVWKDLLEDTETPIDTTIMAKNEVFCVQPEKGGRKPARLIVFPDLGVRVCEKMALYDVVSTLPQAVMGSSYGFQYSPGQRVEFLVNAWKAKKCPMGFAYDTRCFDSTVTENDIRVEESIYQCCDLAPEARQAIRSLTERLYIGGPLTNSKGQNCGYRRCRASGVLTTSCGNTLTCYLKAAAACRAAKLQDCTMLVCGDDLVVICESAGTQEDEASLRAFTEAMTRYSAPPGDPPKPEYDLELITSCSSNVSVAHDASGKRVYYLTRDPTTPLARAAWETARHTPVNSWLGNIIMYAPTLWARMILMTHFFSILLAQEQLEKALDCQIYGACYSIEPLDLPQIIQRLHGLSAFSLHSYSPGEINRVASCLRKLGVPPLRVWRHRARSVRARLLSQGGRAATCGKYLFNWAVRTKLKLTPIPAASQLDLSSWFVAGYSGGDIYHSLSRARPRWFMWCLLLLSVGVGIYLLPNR

With `C#C[C@@]1(O)[C@H](O)[C@@H](CO[P@@](=O)(N[C@@H](C)C(=O)OC(C)C)Oc2ccccc2)O[C@H]1n1ccc(=O)[nH]c1=O` (single isomer, unassigned) [Example 1] the CC50 [1] was > 20 µM, the CC50 at 96 h [2] was > 50 µM and the EC50 ([3]; Hepatitis C virus, GT1B, 72 h, read-out: HCV GT1b EC50 (uM)) was 0.066 µM. The EC50 ([3]; read-out: HCV GT1b EC50) was 0.098 µM, the CC50 (in vitro) was > 25 µM and the EC50 (Dengue virus; Dengue virus, PBMC, 48 h) was 400 nM. For the same compound, the EC50 (Dengue virus; 48 hours) was 230 nM.
For `C#C[C@@]1(O)[C@H](O)[C@@H](COP(=O)(O)OP(=O)(O)OP(=O)(O)O)O[C@H]1n1ccc(=O)[nH]c1=O` [Example 1.8, ((2R,3R,4R,5R)-5-(2,4-dioxo-3,4-dihydropyrimidin-1(2H)-yl)-4-ethynyl-3,4-dihydroxytetrahydrofuran-2-yl)methyl tetrahydrogen triphosphate], the IC50 (Dengue polymerase [4]) was 1200 nM, the IC50 (HCV polymerase) was 8.3 µM and the IC50 (Dengue polymerase [5]) was 2.9 µM.
With `CC#C[C@@]1(O)[C@H](O)[C@@H](COP(=O)(O)OP(=O)(O)OP(=O)(O)O)O[C@H]1n1ccc(=O)[nH]c1=O` [Example 1.9, ((2R,3R,4R,5R)-5-(2,4-dioxo-3,4-dihydropyrimidin-1(2H)-yl)-3,4-dihydroxy-4-(prop-1-yn-1-yl)tetrahydrofuran-2-yl)methyl tetrahydrogen triphosphate] the IC50 (Dengue polymerase [4]) was 2100 nM and the IC50 (Dengue polymerase [5]) was 3.4 µM.
